For series [1], the target named is T1, Soluble guanylate cyclase alpha1/beta1 complex (Rattus norvegicus) (UniProt P19686+P20595). In words: Stimulation of recombinant rat sGC alpha1/beta1 expressed in CHO cells assessed as formation of cGMP from GTP by measuring concentration for >3-fold increase in the basal luminescence value by luminescence based analysis. To be noted: filed as activator. The class given is cell-based.

Series [2] can be described thus: Metabolic stability in rat hepatocytes assessed as clearance measured upto 90 mins by LC-MS/MS analysis. The class given is ADME, cell-based, Hepatocyte.
Series [3] deals with Rattus norvegicus. The series is described as follows: Antihypertensive activity in spontaneous hypertensive Wistar rat model assessed as reduction in blood pressure po administered bolus injection by radiotelemetry analysis. To be noted: dose 0.3 mg/kg. The series is classed as functional, organism-based.
The test system of series [4] is Rattus norvegicus. In words: Antihypertensive activity in conscious normotensive Wistar rat model assessed as increase in heart rate at 10 mg/kg, po measured after 14 hrs by radiotelemetry. The series is classed as functional, organism-based.
For series [5], the system named is Rattus norvegicus. The series is described as follows: Hypotensive effect in conscious normotensive Wistar rat assessed as reduction in arterial blood pressure at 10 mg/kg, po administered for 21 days by tail-cuff method relative to control. The class given is functional. Details: scale not given: the % may be the effect or the level left. To be noted: time 21 day.

In series [6] the test system is Rattus norvegicus. The series is described as follows: Antihypertensive activity in conscious normotensive Wistar rat model assessed as increase in heart rate at 3 mg/kg, po measured after 14 hrs by radiotelemetry. The series is classed as functional, organism-based.
The subject of series [7] is Rattus norvegicus. In words: Hypotensive effect in conscious normotensive Wistar rat assessed as reduction in arterial blood pressure at 3 mg/kg, po administered for 21 days by tail-cuff method relative to control. The class given is functional. The arrangement: scale not given: the % may be the effect or the level left. To be noted: time 21 day.
Series [8] deals with Rattus norvegicus. In words: Antihypertensive activity in spontaneous hypertensive Wistar rat assessed as decrease in systolic blood pressure iv administered as bolus injection measured for 21 days by tail-cuff method. The series is classed as functional, organism-based. To be noted: dose 0.3-3 mg/kg, time 21.0 day.
Series [9] has as its system Rattus norvegicus. The series is described as follows: Antihypertensive activity in spontaneous hypertensive Wistar rat assessed as decrease in systolic blood pressure at 3 mg/kg, iv administered as bolus injection measured for 21 days by tail-cuff method. The class given is functional. To be noted: time 21 day.
The test system of series [10] is Rattus norvegicus. In words: Antihypertensive activity in spontaneous hypertensive Wistar rat model assessed as reduction in blood pressure at 3 mg/kg, po measured after 12 hrs by radiotelemetry analysis. The class given is functional, organism-based.
Series [11] has as its system Rattus norvegicus. In words: Hypotensive effect in conscious normotensive Wistar rat assessed as reduction in arterial blood pressure administered orally for 21 days by tail-cuff method. The class given is functional, organism-based. To be noted: dose 0.3-1 mg/kg, route po, time 21.0 day.
In series [12] the test system is Rattus norvegicus. The series is described as follows: Antihypertensive activity in spontaneous hypertensive Wistar rat assessed as decrease in systolic blood pressure at 0.3 mg/kg, iv administered as bolus injection measured for 21 days by tail-cuff method. The class given is functional. To be noted: time 21 day.
Series [13] has as its system Rattus norvegicus. The series is described as follows: Antihypertensive activity in spontaneous hypertensive Wistar rat assessed as decrease in systolic blood pressure at 1 mg/kg, iv administered as bolus injection measured for 21 days by tail-cuff method. The class given is functional. To be noted: time 21 day.
The subject of series [14] is Rattus norvegicus. The series is described as follows: Antihypertensive activity in spontaneous hypertensive Wistar rat model assessed as reduction in blood pressure at 10 mg/kg, po measured after 12 hrs by radiotelemetry analysis. The series is classed as functional. The arrangement: scale not given: the % may be the effect or the level left.
A further series deals with Aorta. In words: Vasorelaxant activity in New Zealand White rabbits aortic rings assessed as reduction in phenylephrine-induced contraction measured after 30 mins. The class given is functional, tissue-based. To be noted: Oryctolagus cuniculus, 0.5 h.
Series [15] can be described thus: Half life in Wistar rat at 0.3 mg/kg, iv administered as infusion by LC-MS/MS analysis. The class given is ADME, organism-based. To be noted: in vivo.
Series [16] can be described thus: Volume of distribution at steady state in Wistar rat at 0.3 mg/kg, iv administered as infusion by LC-MS/MS analysis. The class given is ADME, organism-based. To be noted: in vivo, read-out: Vdss.
Series [17] is described as follows: Oral bioavailability in Wistar rat at 1 mg/kg by LC-MS/MS analysis. The class given is ADME, organism-based. To be noted: in vivo.
A short description of series [18]: Apparent permeability across apical to basolateral side in human Caco-2 cells incubated for 2 hrs by LC-MS/MS analysis. The class given is ADME, cell-based. A general note: Caco-2 cells form a polarised layer with tight junctions and transporters.
A short description of series [19]: Blood clearance in Wistar rat at 0.3 mg/kg, iv administered as infusion incubated for 20 mins by HR LC-MS/MS analysis. To be noted: whole blood. The series is classed as ADME, organism-based.
Series [20] in a line: Fraction unbound in po or iv dosed Wistar rat. The class given is ADME, organism-based. To be noted: in vivo.
Series [21] in a line: Efflux ratio of apparent permeability basolateral to apical side over apical to basolateral side in human Caco-2 cells incubated for 2 hrs by LC-MS/MS analysis. The class given is ADME, cell-based.
Series [22] can be described thus: Solubility of compound in PBS at pH 6.5 measured for 24 hrs by LC-MS/MS analysis. The series is classed as physicochemical.
The test system of the next series is CHO. In words: Stimulation of recombinant rat sGC alpha1/beta1 expressed in CHO cells assessed as formation of cGMP from GTP in presence of […] ODQ by measuring basal luminescence value by luminescence based analysis. The series is classed as cell-based. To be noted: dose 300.0 nM, time 3.0 hrs.
The target in series [23] is T1, Soluble guanylate cyclase alpha1/beta1 complex (Rattus norvegicus). In words: Stimulation of recombinant rat sGC alpha1/beta1 expressed in CHO cells assessed as formation of cGMP from GTP in presence of NO donor SNAP by measuring basal luminescence value by luminescence based analysis. The class given is cell-based. To be noted: filed as activator, dose 300.0 nM.

Consider 16 compounds from ChEMBL document CHEMBL5338746, “New Generation of sGC Stimulators: Discovery of Imidazo[1,2-a]pyridine Carboxamide BAY 1165747 (BAY-747), a Long-Acting Soluble Guanylate Cyclase Stimulator for the Treatment of Resistant Hypertension” (J Med Chem, 2023).

Structures are written as SMILES. Converted amounts (≈) assume the structure as drawn. The source made the active and inactive calls. The calls are words filed in the database; no cut-off is given here.

As for `Cc1nc2c(OCC3CCC3)cccn2c1C(=O)NCCOCCO`, the MEC in series [1] was determined as 3 µM. Moreover, the CLhep predicted in series [2] is 25 mL/min/kg.
For the compound `CCCC[C@H](CO)NC(=O)c1cnc2c(OCc3c(F)cccc3F)cccn12`, the MEC in [1] is 0.3 µM. The CLhep predicted in series [2] is 13.3 mL/min/kg.
For `CCCC[C@H](CO)NC(=O)c1c(C2CC2)nc2c(OCc3c(F)cccc3F)cccn12` the same measures were 0.3 µM and 36.7 mL/min/kg.
In the same order, the values of `CCCC[C@H](CO)NC(=O)c1c(C)nc2c(OCCC(C)C)cccn12` are 1 µM and 48.3 mL/min/kg.
For `CCCC[C@H](CO)NC(=O)c1c(C)nc2c(OCc3c(F)cc(F)cc3F)cccn12` the same measures were 0.1 µM and 26.7 mL/min/kg.
Take `CCCC[C@H](CO)NC(=O)c1c(C)nc2c(OCc3c(C)cccc3C)cccn12`: the MEC in series [1] amounted to 3 µM. The CLhep predicted in series [2] is 43.3 mL/min/kg.
For `CCCC[C@H](CO)NC(=O)c1c(C)nc2c(OCc3c(F)cccc3F)cc(Cl)cn12` the same measures were 0.01 µM and 48.3 mL/min/kg.
Take `Cc1nc2c(OCC3CCC3)cccn2c1C(=O)NCCC1(O)CCCCC1`: the MEC in series [1] is 3 µM.
On to `CCCC[C@H](CO)NC(=O)c1c(C)nc2c(OCc3c(F)cccc3F)cc(F)cn12`, for which the MEC in series [1] turned out to be 0.03 µM. The CLhep predicted in series [2] was 51.7 mL/min/kg.
As to `CCCC[C@H](CO)NC(=O)c1c(C)nc2c(OCc3cccc(F)c3F)cccn12`, the MEC in [1] was 0.3 µM. In series [2], the CLhep predicted was 25 mL/min/kg.
Regarding `CCCC[C@H](CO)NC(=O)c1c(C)nc2c(OCc3ccccc3)cccn12`, the MEC in series [1] came to 1 µM. In addition, the CLhep predicted in series [2] was 38.3 mL/min/kg.
For the compound `Cc1nc2c(OCc3c(F)cccc3F)cccn2c1C(=O)NC(CN)c1ccc(F)c(F)c1` (single isomer, unassigned; enantiomer B), the Activity result in the series on Rattus norvegicus [3] is “Dose-Dependent Effect”; with Rattus norvegicus [5], 10%; in the series on Rattus norvegicus [7], 8%; with Rattus norvegicus [8] it was “Dose-Dependent Effect”; in the series on Rattus norvegicus [9] it was -96 mmHg; with Rattus norvegicus [11] it was “Dose-Dependent Effect”. Besides, the results for the Activity in the series on Rattus norvegicus [12], in the series with Rattus norvegicus [13] and with Rattus norvegicus [14] were -12 mmHg, -38 mmHg and 20%, respectively. The result with Rattus norvegicus [4], in the series on Rattus norvegicus [6] and in the series on Rattus norvegicus [10] was Active. For the same compound, the half-maximal inhibitory concentration (IC50) in the series with Aorta turned out to be 625 nM.
Turning to `CCCC[C@H](CO)NC(=O)c1c(C)nc2c(OCc3c(F)cccc3F)cc(C3CC3)cn12`, in [1], the MEC stood at 1 µM. In addition, the CLhep predicted in series [2] was 51.7 mL/min/kg.
In turn, `CCCC[C@H](CO)NC(=O)c1c(C)nc2c(OCc3c(F)cccc3F)cccn12` gave a half-life in series [15] of 48 min. In addition, the MEC in series [1] worked out at 0.05 µM. Also, the Vd in [16] came out at 0.9 L/kg. The bioavailability in series [17] was 65%. The Papp A→B at 2 h in series [18] worked out at 41.3 ×10⁻⁶ cm/s. This compound also gave a clearance at […] in series [19] of 26.7 mL/min/kg. This compound also came in with a fraction unbound in [20] of 0.049. The efflux ratio at 2 h in [21] was 0.6. The same compound displayed a solubility at 24 h in series [22] of 3 µg/mL (≈ 7.19 µM). Further, the CLhep predicted in series [2] was 33.3 mL/min/kg.
For the compound `CCCC[C@H](CO)NC(=O)c1c(C)nc2c(OCc3c(F)cccc3F)cc(C)cn12`, the MEC in series [1] turned out to be 0.01 µM. Further, the CLhep predicted in series [2] is 56.7 mL/min/kg.
Consider `Cc1nc2c(OCC3CCC3)cccn2c1C(=O)NCc1ccc(Cl)cc1`, for which the MEC in [1] worked out at 1 µM. In addition, in the series with CHO, the Drug metabolism entry is “inactive”. In addition, the Drug metabolism result in [23] was “Active”. The IC50 in the series with Aorta stood at 840 nM. Besides, in [2], the CLhep predicted was 60 mL/min/kg.

Broadly, the IC50 is the concentration needed to halve the response being measured. By half-life is commonly meant how long it takes for the measured level to halve. The bioavailability is the share of a dose that reaches the circulation, judged against a reference dose that is usually intravenous. Broadly, the Papp A→B is how fast a substance crosses the layer from the apical side. In general, clearance refers to a measure of how efficiently the substance is removed, as volume per time. In general, fraction unbound refers to free concentration divided by total concentration. A word on the efflux ratio: it is a quotient of directional permeabilities that is used to spot active efflux. For orientation: solubility means the concentration that dissolves in the medium under given conditions.
